Reference: patent US6111132A, “Compounds and methods for synthesis and therapy” (priority 1998, dated 2000)

Each compound was assayed against Neuraminidase Flu B (Influenza B virus, UniProt P03474) (assay: biochemical).
From the text: Compositions of the invention are screened for inhibitory activity against neuraminidase by any of the conventional techniques for evaluating enzyme activity. Within the context of the invention, typically compositions are first screened for inhibition of neuraminidase in vitro and compositions showing inhibitory activity are then screened for activity in vivo.
(§1) Useful in vitro screens have been described in detail and will not be elaborated here. However, von Itzstein, M. et al.; "Nature", 363(6428):418-423 (1993), in particular page 420, column 2, full paragraph 3, to page 421, column 2, first partial paragraph, describes a suitable in vitro assay of Potier, M.; et al.; "Analyt. Biochem.", 94:287-296 (1979), as modified by Chong, A. K. J.; et al.; "Biochem. Biophys. Acta", 1077:65-71 (1991); and Colman, P. M.; et al.; International Publication No. WO 92/06691 (Int. App. No. PCT/AU90/00501, publication date Apr. 30, 1992) page 34, line 13, to page 35, line 16, describes another useful in vitro screen.
Enzyme Inhibition: Using the methods of screening in vitro activity described above, the following activities were observed: […]

Neuraminidase Flu B, sequence (P03474 whole entry): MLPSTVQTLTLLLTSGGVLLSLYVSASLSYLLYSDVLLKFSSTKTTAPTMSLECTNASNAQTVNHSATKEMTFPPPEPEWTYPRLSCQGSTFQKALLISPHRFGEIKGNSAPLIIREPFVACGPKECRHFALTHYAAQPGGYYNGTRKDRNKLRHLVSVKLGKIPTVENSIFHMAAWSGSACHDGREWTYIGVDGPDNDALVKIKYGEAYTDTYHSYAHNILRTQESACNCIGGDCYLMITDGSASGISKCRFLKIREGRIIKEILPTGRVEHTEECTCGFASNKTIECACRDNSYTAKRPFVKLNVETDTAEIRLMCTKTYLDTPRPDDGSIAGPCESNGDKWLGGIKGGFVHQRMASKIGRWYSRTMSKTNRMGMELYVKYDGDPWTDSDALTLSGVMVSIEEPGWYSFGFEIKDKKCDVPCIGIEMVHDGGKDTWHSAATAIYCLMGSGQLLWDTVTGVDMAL

Compound CC(=O)N[C@H]1[C@H](N2CCCCC2)C=C(C(=O)O)C[C@@H]1N [Compound 5l] has an IC50 of 3 nM.

What follows are compounds tested against Neuraminidase Flu A (assay: Neuraminidase inhibition in vitro, Flu A).
Format: biochemical, influenza virus A
From the text: Compositions of the invention are screened for inhibitory activity against neuraminidase by any of the conventional techniques for evaluating enzyme activity.
as §1

In order of rising IC50:
1. CCC(CC)N(C)[C@@H]1C=C(C(=O)O)C[C@H](N)[C@H]1NC(C)=O [Compound 5c]  6 nM
2. CCC(CC)N[C@@H]1C=C(C(=O)O)C[C@H](N)[C@H]1NC(C)=O [Compound 12a]  11.5 nM
3. CCCN(CCC)[C@@H]1C=C(C(=O)O)C[C@H](N)[C@H]1NC(C)=O [Compound 5i]  12 nM
4. CC(=O)N[C@H]1[C@H](N2CCCCC2)C=C(C(=O)O)C[C@@H]1N [Compound 5l]  30 nM
5. CCCN(CC1CC1)[C@@H]1C=C(C(=O)O)C[C@H](N)[C@H]1NC(C)=O [Compound 5j]  50 nM
6. CCCCN(CC)[C@@H]1C=C(C(=O)O)C[C@H](N)[C@H]1NC(C)=O [Compound 5h]  85 nM
7. CCCN(CC)[C@@H]1C=C(C(=O)O)C[C@H](N)[C@H]1NC(C)=O [Compound 5g]  90 nM
8. CC(=O)N[C@H]1[C@H](N(C)CCc2ccccc2)C=C(C(=O)O)C[C@@H]1N [Compound 5e]  100 nM
9. CCC(CC)CN(C)[C@@H]1C=C(C(=O)O)C[C@H](N)[C@H]1NC(C)=O [Compound 5d]  120 nM
10. CCCCN(C)[C@@H]1C=C(C(=O)O)C[C@H](N)[C@H]1NC(C)=O [Compound 5b]  180 nM
11. CC(=O)N[C@H]1[C@H](N(C)C2CCCCC2)C=C(C(=O)O)C[C@@H]1N [Compound 5f]  200 nM
12. CC(=O)N[C@H]1[C@H](N2CCOCC2)C=C(C(=O)O)C[C@@H]1N [Compound 5m]  200 nM
13. CCCN[C@@H]1C=C(C(=O)O)C[C@H](N)[C@H]1NC(C)=O [Compound 12b]  200 nM
14. CC(=O)N[C@H]1[C@H](N2CCCC2)C=C(C(=O)O)C[C@@H]1N [Compound 5k]  400 nM
